Read-outs that look alike come from different tables or passages of the source.
Key:
[1] = molecular target: T1, GAL4 DBD (1-147)-CfEcR(DEF)/VP16AD-βRXREF-LmUSPEF (Choristoneura fumiferana, UniProt O77240); assay: 27-63 assay: luciferase reporter gene expression in stable CHO cell clone 27-63; conditions: for 27-63 Rel Max FI: maximum fold induction at any concentration relative to that of GS-E ligand; for CC50: read-out: 27-63 LC50, average, dose response, three-parameter logistic model; for Fold Induction Average, 27-63 Assay (33 μM): single dose 33 μM, RLU ligand treated / RLU DMSO treated cells; for fold induction at 33 µM: CHO, read-out: Fold Induction Average, 27-63 Assay (33 μM)
T1 sequence (O77240 191-513): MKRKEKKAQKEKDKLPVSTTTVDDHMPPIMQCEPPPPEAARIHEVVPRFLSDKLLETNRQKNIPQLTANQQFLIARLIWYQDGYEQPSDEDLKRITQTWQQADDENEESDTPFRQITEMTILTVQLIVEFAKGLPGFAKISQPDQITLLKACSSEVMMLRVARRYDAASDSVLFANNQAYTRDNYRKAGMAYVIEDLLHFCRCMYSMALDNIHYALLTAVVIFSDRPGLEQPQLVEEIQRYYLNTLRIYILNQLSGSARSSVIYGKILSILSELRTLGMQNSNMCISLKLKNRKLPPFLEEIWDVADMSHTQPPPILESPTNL
T1 sequence (P28702 296-455 partner limits assumed): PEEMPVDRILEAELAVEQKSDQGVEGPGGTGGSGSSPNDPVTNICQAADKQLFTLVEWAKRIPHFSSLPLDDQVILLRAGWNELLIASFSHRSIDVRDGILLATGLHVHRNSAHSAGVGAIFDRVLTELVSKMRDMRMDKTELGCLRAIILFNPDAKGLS
Method in brief: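 CHO clone stably expressing GAL4 DBD-CfEcR(DEF) and VP16AD-HsRXRβ/LmUSP EF chimera plus a 5XGAL4RE-luciferase reporter; ligands given at 8 concentrations (33 μM to 0.01 μM), luminescence read 48 h after treatment. Fold induction versus DMSO cells; BC50 from three-parameter logistic fit.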

[2] = molecular target: T2, GAL4 DBD-CfEcR(DEF)/VP16AD-MmRXRE (Choristoneura fumiferana, UniProt O77240); assay: cell-based; conditions: for fold induction at 33 µM: CHO, read-out: Fold Induction Average, 13B3 Assay (33 μM); for 13B3 Rel Max FI: maximum fold induction at any concentration relative to that of GS-E ligand
T2 sequence (O77240 1-513): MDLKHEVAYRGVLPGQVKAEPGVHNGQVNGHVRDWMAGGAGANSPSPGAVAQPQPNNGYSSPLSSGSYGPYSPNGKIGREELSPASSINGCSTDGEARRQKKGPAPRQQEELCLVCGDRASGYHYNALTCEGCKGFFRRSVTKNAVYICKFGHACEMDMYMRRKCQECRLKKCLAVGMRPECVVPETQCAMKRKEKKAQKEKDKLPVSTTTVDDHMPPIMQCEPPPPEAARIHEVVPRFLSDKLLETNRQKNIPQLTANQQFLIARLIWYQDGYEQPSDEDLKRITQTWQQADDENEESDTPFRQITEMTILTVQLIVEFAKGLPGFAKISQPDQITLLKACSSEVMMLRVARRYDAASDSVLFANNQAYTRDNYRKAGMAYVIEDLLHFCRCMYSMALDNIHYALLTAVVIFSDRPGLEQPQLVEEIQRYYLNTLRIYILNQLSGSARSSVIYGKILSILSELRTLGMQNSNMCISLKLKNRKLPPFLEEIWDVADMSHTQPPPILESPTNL
Method in brief: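 Stable CHO clone 13B3 expressing GAL4 DBD-CfEcR(DEF) and VP16AD-mouse RXR(DE) with GAL4 RE-luciferase reporter. Ligands tested at 8 concentrations, 33–0.01 μM; luciferase read 48 h after treatment. Fold induction versus DMSO; BC50 from three-parameter logistic fit.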

Structure (SMILES)	27-63 Rel Max FI [1]	CC50 [1] [µM]	Fold Induction Average, 27-63 Assay (33 μM) [1]	EC50 [2] [µM]	fold induction at 33 µM [2]	13B3 Rel Max FI [2]	Fold Induction Average, 13B3 Assay (33 μM) [2]	fold induction at 33 µM [1]	EC50 ([2]; read-out: 13B3 EC50, average, dose response, three-parameter logistic model) [µM]	Fold Induction Average, 13B3 Assay (33 μM) ([2]; single dose 33 μM, RLU ligand treated / RLU DMSO treated cells)
O=C(NC1(C(=O)c2ccccc2)CCCC1)c1ccccc1 [Example 139]	0.00	> 33								
COc1cccc(C(=O)NC(C)(C)C(=O)c2ccccc2)c1C [Example 76]	0.00	> 33								
COc1cccc(C(=O)NC(C)(C)C(=O)c2cc(C)cc(C)c2)c1C [Example 75]	0.29	42								
CCOC(=O)C(=O)N1CCCC(NC(=O)c2cccc(OC)c2C)(C(=O)c2cc(C)cc(C)c2)C1 (racemic) [Example 154]			2							
COc1cccc(C(=O)NC(C)(C(=O)c2cccc(C)c2)C(C)C)c1C (stereo not shown) [Example 31]	0.61	~15		> 33	1000	0.08				
COc1cccc(C(=O)NC2(C(=O)c3cc(C)cc(C)c3)CCCCC2)c1C [Example 11]	0.97	1.43		1.8	94700	1.15				
COc1cccc(C(=O)C(C)(C)NC(=O)c2ccccc2OC)c1 [Example 117]			1				12			
COc1cccc(C(=O)NC(C)(CC(C)C)C(=O)c2cccc(C)c2)c1C (stereo not shown) [Example 52]	0.04	~12		> 33	114	0.00				
COC(=O)CN1CCCC(NC(=O)c2cccc(OC)c2C)(C(=O)c2cc(C)cc(C)c2)C1 (racemic) [Example 156]	0.00	> 33	3							
COc1ccccc1C(=O)C1(NC(=O)c2cccc(OC)c2C)CCCCC1 [Example 45]	0.71	1.03		1.35	92900	0.67				
COc1cccc(C(=O)NC2(C(=O)c3ccc(C)cc3)CCCCC2)c1C [Example 15]	0.87	6.18		4.11	371	0.09				
CCNC(=O)N1CCC(NC(=O)c2cccc(OC)c2C)(C(=O)c2cc(C)cc(C)c2)CC1 [Example 157]			1							
COc1cccc(C(=O)NC2(C(=O)c3ccccc3)CCCC2)c1 [Example 141]	0.00	> 33								
COc1cccc(C(=O)NC(C)(C(=O)c2ccccc2)C(C)C)c1C (stereo not shown) [Example 34]	0.00	> 33		> 33	6	0.00				
CCc1c(OC)cccc1C(=O)NC1(C(=O)c2cc(C)cc(C)c2)CCCCC1 [Example 143]	0.91	1.5								
COc1cccc(C(=O)NC(C)(CC(C)C)C(=O)c2cc(C)cc(C)c2)c1C (stereo not shown) [Example 55]	0.62	3.85		3.42	24700	0.21				
COc1cccc(C(=O)NC2(C(=O)c3cc(C)cc(C)c3)CCOCC2)c1C [Example 27]	0.96	10		~20	31600	0.36		2740		
COc1ccccc1C(=O)C(C)(NC(=O)c1cccc(OC)c1C)C(C)C (stereo not shown) [Example 30]	0.03	> 33		> 33	133	0.00				
COc1ccc(C(=O)C2(NC(=O)c3cccc(OC)c3C)CCCCC2)c(OC)n1 [Example 64]	0.82	3.12		3.79	599	0.81				
COc1cccc(C(=O)NC(C)(C(=O)c2ccc(C)cc2)C(C)C)c1C (stereo not shown) [Example 33]	0.00	> 33		> 33	78	0.00				

Structure (SMILES)	27-63 Rel Max FI [1]	CC50 [1] [µM]	Fold Induction Average, 27-63 Assay (33 μM) [1]	EC50 [2] [µM]	fold induction at 33 µM [2]	13B3 Rel Max FI [2]	Fold Induction Average, 13B3 Assay (33 μM) [2]	fold induction at 33 µM [1]	EC50 ([2]; read-out: 13B3 EC50, average, dose response, three-parameter logistic model) [µM]	Fold Induction Average, 13B3 Assay (33 μM) ([2]; single dose 33 μM, RLU ligand treated / RLU DMSO treated cells)
COc1cccc(C(=O)NC2(C(=O)c3cc(F)c(F)c(OC)c3)CCCC2)c1C [Example 67]	0.77	6.59		17.6	555	0.50				
COc1cccc(C(=O)NC2(C(=O)c3cc(C)cc(C)c3)CC2)c1C [Example 13]	0.09	> 33		> 33	3	0.00				
COc1cccc(C(=O)NC2(C(=O)c3ccccc3)CCCCC2)c1C [Example 69]	0.84	14.4		19.4	164	0.19				
COc1ccccc1C(=O)C(C)(C)NC(=O)c1cccc(OC)c1C [Example 74]			9							
COc1cccc(C(=O)NC2(C(=O)c3cccc(C)c3)CCCCC2)c1C [Example 7]	0.77	3.52		6.73	3100	0.55				
CCC(CC)(NC(=O)c1cccc(OC)c1C)C(=O)c1ccc(C)cc1 [Example 77]	0.00	> 33								
COc1cccc(C(=O)NC2(C(=O)c3cc(C)cc(C)c3)CCCC2)c1C [Example 10]	0.86	1.91		3.27	32700	0.71				
COc1cccc(C(=O)NC2(C(=O)c3ccc(F)c(C)c3)CCCC2)c1C [Example 17]	0.40	~5.5		4.51	1190	0.01				
COc1cc(C(=O)C2(NC(=O)c3cccc(OC)c3C)CCCC2)cc(OC)c1C [Example 65]	0.28	> 20				0.03			~20	19
COc1cccc(C(=O)NC(C)(C(=O)c2ccccc2C)C(C)C)c1C (stereo not shown) [Example 63]	0.68	27.2		> 33	14	0.03				
COc1ccc(C(=O)C2(NC(=O)c3cccc(OC)c3C)CCCCC2)cc1 [Example 46]	0.00	> 33		> 33	102	0.00		5		
CCCCC(=O)C1(NC(=O)c2cccc(OC)c2C)CCCCC1 [Example 120]	0.65	9.05		14.9	367	0.27				
CCC(CC)(NC(=O)c1cccc(OC)c1C)C(=O)c1ccccc1 [Example 78]	0.41	6.54								
COc1cccc(C(=O)NC2(C(=O)c3ccc(C)cc3)CCCC2)c1C [Example 79]	0.32	4.38								
CCc1c(OC)cccc1C(=O)NC1(C(=O)c2cc(C)cc(C)c2)CCCC1 [Example 144]	0.93	1.52								
COc1ccccc1C(=O)C(C)(NC(=O)c1cccc(OC)c1C)c1ccc(F)cc1 (stereo not shown) [Example 72]			1							
COc1cccc(C(=O)NC2(C(=O)c3cc(C)cc(C)c3)CCN(C(C)=O)CC2)c1C [Example 149]								1		
COc1cccc(C(=O)NC2(C(=O)c3cc(C)cc(C)c3)CCCCCC2)c1C [Example 71]	0.88	2.97								
COc1ccccc1C(=O)C1(NC(=O)c2cccc(OC)c2C)CCCCCC1 [Example 70]	0.66	3.36								
